{"source": "patent US20050261171A1", "about": "“Combination cancer therapy” (Pharmacyclics, Inc., priority 2001, published 2005)", "key": {"[1]": {"system": "murine Lewis lung carcinoma cell line (LLC1)", "assay": "BCNU and MGd, tumor regrowth delay in subcutaneous Lewis lung carcinoma model", "assay_type": "in vivo, Female C57BL mice", "settings": "control group 11.45 days"}, "[2]": {"system": "murine Lewis lung carcinoma cell line (LLC1)", "assay": "Taxol and MGd, tumor regrowth delay in subcutaneous Lewis lung carcinoma model", "assay_type": "in vivo, Female C57BL mice", "settings": "control group 11.40 days"}, "[3]": {"system": "murine Lewis lung carcinoma cell line (LLC1)", "assay_type": "in vivo, Female C57BL mice", "settings": "control group 12.11 days"}, "murine Lewis lung cancer": {"system": "murine Lewis lung cancer", "assay": "Carboplatin and MGd, murine Lewis lung cancer in C57 mice", "assay_type": "in vivo", "settings": "Group #2: 20 μmol/kg MGd on day 7 post tumor inoculation; control group 12.14 days"}}, "note": "Where two headings read alike, the source gives them in different places.", "data": [{"molecule": "O=NN(CCCl)C(=O)NCCCl", "note": "[BCNU, carmustine, reference compound]", "values": [{"measurement": "median survival", "setting": "[1]; Group #3: 15 mg/kg BCNU ip on days 10, 12 and 14", "result": 10.46, "unit": "days"}]}, {"molecule": "CC(=O)O[C@H]1C(=O)[C@@]2(C)[C@H]([C@H](OC(=O)c3ccccc3)[C@]3(O)C[C@H](OC(=O)[C@H](O)[C@@H](NC(=O)c4ccccc4)c4ccccc4)C(C)=C1C3(C)C)[C@]1(OC(C)=O)CO[C@@H]1C[C@@H]2O", "note": "[Taxol, paclitaxel, reference compound]", "values": [{"measurement": "median survival", "setting": "[2]; Group #3: 24 μmol/kg of Taxol iv on days 7, 9, 11 and 13", "result": 11.55, "unit": "days"}]}, {"molecule": "Motexafin Gadolinium [MGd]", "values": [{"measurement": "median survival", "setting": "[2]; Group #2: 20 μmol/kg MGd iv on days 7, 9, 11 and 13", "result": 12.90, "unit": "days"}, {"measurement": "median survival", "setting": "[1]; Group #2: 20 μmol/kg MGd iv on days 10, 12 and 14", "result": 10.04, "unit": "days"}, {"measurement": "median survival", "setting": "[3]; Group #2: 20 μmol/kg MGd iv thrice at three day intervals after tumor established", "result": 13.07, "unit": "days"}, {"measurement": "median survival", "setting": "murine Lewis lung cancer", "result": 12.42, "unit": "days"}]}, {"molecule": "bleomycin [reference compound]", "values": [{"measurement": "median survival", "setting": "[3]; Group #3: 10 units/kg bleomycin iv thrice at three day intervals after tumor established", "result": 14.73, "unit": "days"}]}]}
